One assay has as its target T1, B receptor of endothelin (Rattus norvegicus, UniProt P21451).
T1 construct: A membrane preparation is produced from the posterior cortex plus cerebellum of a rat; from tissue; host or cells: rat posterior cortex plus cerebellum, membranes
T1 sequence (P21451 27-442): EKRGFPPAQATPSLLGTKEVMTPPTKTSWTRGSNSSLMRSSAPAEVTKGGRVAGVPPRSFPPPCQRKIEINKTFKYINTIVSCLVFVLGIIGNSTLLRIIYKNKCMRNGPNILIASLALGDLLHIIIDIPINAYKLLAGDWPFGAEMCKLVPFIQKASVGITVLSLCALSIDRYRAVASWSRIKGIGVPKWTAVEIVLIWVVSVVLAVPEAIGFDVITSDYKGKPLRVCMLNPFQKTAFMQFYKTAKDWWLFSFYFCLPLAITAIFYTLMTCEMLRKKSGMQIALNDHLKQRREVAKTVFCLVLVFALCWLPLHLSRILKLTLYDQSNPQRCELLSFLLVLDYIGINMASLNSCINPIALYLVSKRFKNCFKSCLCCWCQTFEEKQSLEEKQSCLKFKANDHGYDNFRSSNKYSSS
Put plainly: Study of the activity on the B receptor of endothelin (displacement of 125I Endothelin, rat posterior cortex plus cerebellum membranes). Particulars: 25 °C, 60 minutes, pH 7.4, read-out: B receptor of endothelin IC/50. In kind it is binding. The method, then:
STUDY OF THE ACTIVITY ON THE B RECEPTOR OF ENDOTHELIN
A membrane preparation is produced from the posterior cortex plus cerebellum of a rat. The tissue is ground up in a POLYTRON in a 50 mM Tris buffer pH=7.4.
After 30 minutes at 25° C. (W.B.) the homogenate is centrifuged at 30000 g for 15 minutes (2 centrifugations with intermediate take-up in the Tris buffer pH. 7.4).
(§1) The pellets are resuspended in an incubation buffer (25 mM Tris, 5 microg/ml pepstatin A, 3 microg/ml aprotinin, 0.1 mM PMSF, 3 mM EDTA, 1 mM EGTA pH 7.4).
(§2) 2 ml aliquots are distributed into hemolysis tubes and ^125 I Endothelin (approximately 50000 dpm/tube) and the product to be studied are added. (The product is first tested at 3×10^-5 M three times). When the tested product displaces more than 50% of the radioactivity specifically bound to the receptor, it is tested again according to a range of 7 concentrations so as to determine the concentration which inhibits the radioactivity specifically bound to the receptor by 50%. In this way the 50% inhibitory concentration is determined.
(§3) The non-specific bond is determined by the addition of 10^-6 M endothelin (three times). After incubation at 25° C. for 60 minutes, putting back in the water bath at 0° C., for 5 minutes, filtering under reduced pressure, rinsing with Tris buffer 7.4, the radioactivity is counted in the presence of scintillating Triton. […]

For another assay, the target named is T2, A receptor of endothelin (Rattus norvegicus, UniProt P26684).
T2 construct: A membrane preparation is produced from the heart (ventricles) of a rat; from tissue; host or cells: rat heart ventricles, membranes
T2 sequence (P26684 21-426): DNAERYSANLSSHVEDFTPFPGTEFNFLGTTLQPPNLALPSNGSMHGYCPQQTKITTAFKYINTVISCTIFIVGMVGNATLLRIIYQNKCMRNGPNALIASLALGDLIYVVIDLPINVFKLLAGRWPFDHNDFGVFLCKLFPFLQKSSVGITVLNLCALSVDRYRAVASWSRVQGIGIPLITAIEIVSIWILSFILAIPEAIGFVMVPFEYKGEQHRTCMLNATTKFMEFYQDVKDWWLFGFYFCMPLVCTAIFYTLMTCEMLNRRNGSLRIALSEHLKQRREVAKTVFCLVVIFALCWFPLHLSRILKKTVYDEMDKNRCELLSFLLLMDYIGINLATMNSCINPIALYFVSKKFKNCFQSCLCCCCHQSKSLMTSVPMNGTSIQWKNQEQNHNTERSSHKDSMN
Put plainly: Study of the activity on the A receptor of endothelin (displacement of 125I Endothelin, rat heart ventricle membranes). In kind it is binding. Particulars: rat heart (ventricles) membranes, 25 °C, 60 minutes, pH 7.4, read-out: A receptor of endothelin IC/50. The method, then:
STUDY OF THE ACTIVITY ON THE A RECEPTOR OF ENDOTHELIN
A membrane preparation is produced from the heart (ventricles) of a rat. The tissue is ground up in a POLYTRON in a 50 mM Tris buffer pH=7.4.
After 30 minutes at 25° C. (W.B.) the homogenate is centrifuged at 30000 g for 15 minutes (2 centrifugations with intermediate take up in the Tris buffer pH. 7.4).
as §1, §2, §3
Background: In a radioligand displacement assay an active substance lowers the binding of a labelled ligand.

`CCCCc1nc(S(=O)(=O)c2ccc(OC)cc2)c(C(=O)O)n1Cc1cc2c(cc1Cl)OCO2` [Example 10, 2-butyl-1-((6-chloro-1,3-benzodioxol-5-yl)methyl)-4-((4-methoxyphenyl)sulphonyl)-1H-imidazole-5-carboxylic acid]: the IC50 worked out at 250 nM on B receptor of endothelin and 91 nM on A receptor of endothelin.

For `COc1ccc(Sc2nc(C)n(Cc3cc4c(cc3Cl)OCO4)c2C(=O)O)cc1` [Example 21, 1-((6-chloro-1,3-benzodioxol-5-yl)methyl)-4-((4-methoxyphenyl)thio)-2-methyl-1H-imidazole-5-carboxylic acid], the IC50 on B receptor of endothelin is 350 nM; on A receptor of endothelin, 110 nM.

Values taken from patent US5811444A, “Compositions for reducing abnormal stimulation of endothelin receptors and novel compounds” (Roussel Uclaf, priority 1994, dated 1998).
